Test results reported in ChEMBL document CHEMBL5126615, “Identification of RAD51-BRCA2 Inhibitors Using N-Acylhydrazone-Based Dynamic Combinatorial Chemistry” (ACS Med Chem Lett, 2022).
Active and inactive are the calls of the source. No cut-off for these calls is given here.

Tested on: not listed separately
Test: Inhibition of recombinant human His-tagged RAD51 expressed in Escherichia coli Rosetta2(DE3)pLysS cells/BRCA2 (unknown origin) by ELISA

Row | Structure (SMILES) | EC50
1 | CN(C)c1ccc(/C=N/NC(=O)[C@H](Cc2ccccc2)NC(=O)OC(C)(C)C)cc1 | 70 µM
2 | O=C(CCCOc1ccc(Cl)cc1Cl)N/N=C/c1ccc2nccnc2c1 | 35 µM
3 | Cc1cccc(Cn2nc(C(C)(C)C)cc2C(=O)N/N=C/c2ccc(N(C)C)cc2)c1 | 130 µM
4 | O=C(CCCOc1ccc(Cl)cc1Cl)N/N=C/c1ccc2cc[nH]c2c1 | 50 µM
5 | O=C(CCCOc1ccc(Cl)cc1Cl)N/N=C/c1cc2c(s1)CCCC2 | 86 µM
6 | O=C(CCCOc1ccc(Cl)cc1Cl)N/N=C/c1ccc(C(F)(F)F)nc1 | 18 µM
7 | O=C(CCCOc1ccc(Cl)cc1Cl)N/N=C/c1cccc(C(F)(F)F)c1 | 19 µM
8 | O=C(CCCOc1ccc(Cl)cc1Cl)N/N=C/c1cccnc1F | 19 µM
9 | COc1ccc(/C=N/NC(=O)CCCOc2ccc(Cl)cc2Cl)cn1 | 110 µM
10 | COc1cccc(/C=N/NC(=O)CCCOc2ccc(Cl)cc2Cl)c1 | 60 µM

Target: T1, DNA repair protein RAD51 homolog 1 (Homo sapiens) (UniProt Q06609)
T1 sequence (whole entry): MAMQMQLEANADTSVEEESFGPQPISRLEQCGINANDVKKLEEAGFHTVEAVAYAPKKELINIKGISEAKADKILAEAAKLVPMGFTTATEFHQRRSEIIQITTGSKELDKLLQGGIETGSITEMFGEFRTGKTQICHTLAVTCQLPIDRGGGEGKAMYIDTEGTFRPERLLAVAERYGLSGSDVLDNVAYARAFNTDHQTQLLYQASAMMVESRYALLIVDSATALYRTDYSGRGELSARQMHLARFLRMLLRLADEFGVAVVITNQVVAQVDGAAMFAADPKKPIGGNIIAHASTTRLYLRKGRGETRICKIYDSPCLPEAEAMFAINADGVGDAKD
Test: Binding affinity to recombinant human His-tagged RAD51 expressed in Escherichia coli Rosetta2(DE3)pLysS cells by 19F-NMR assay

Row | Structure (SMILES) | Activity
11 | O=C(CCCOc1ccc(Cl)cc1Cl)N/N=C/c1cccnc1F | Active
